pIC50: −log10 of the molar value.
How the values were obtained:
[1] = Inhibition of amplification in human telo21 G-quadruplex DNA by PCR stop assay
[2] = Inhibition of telomerase expressed in MCF7 cells by TRAP assay; format: cell-based, Homo sapiens
Homo sapiens [3] = species on record: Homo sapiens; experiment: Binding affinity to human telo21 G-quadruplex DNA assessed as thermal stability in tris-HCl buffer at pH 7.4
Homo sapiens [4] = species on record: Homo sapiens; experiment: Binding affinity to human telo21 G-quadruplex DNA assessed as change in thermal stability in tris-HCl buffer at pH 7.4

pIC50 [1]	pIC50 [2]	Tm (Homo sapiens [3])	ΔTm (Homo sapiens [4])	Compound
6.15	5.12	63.1 °C	23 °C	COc1ccc2cc3[n+](cc2c1OCCCN1CCNCC1)CCc1cc2c(cc1-3)OCO2
5.64	4.60	57 °C	16.9 °C	CCN(CC)CCOc1c(OC)ccc2cc3[n+](cc12)CCc1cc2c(cc1-3)OCO2
5.64	4.60	51.7 °C	11.6 °C	COc1ccc2cc3[n+](cc2c1OCCN(C(C)C)C(C)C)CCc1cc2c(cc1-3)OCO2
5.68	4.12	44 °C	3.9 °C	COc1ccc2cc3[n+](cc2c1OC)CCc1cc2c(cc1-3)OCO2 [BERBERINE CHLORIDE]

— ChEMBL document CHEMBL1149624, “9-Substituted berberine derivatives as G-quadruplex stabilizing ligands in telomeric DNA” (Bioorg Med Chem, 2007)
